Measurements as given in patent US6525001B1, “Substituted pyrimidine and pyridine herbicides” (Mid-American Commercialization Corporation, priority 1997, dated 2003).

What was measured:
Assay in all cases: Test B pre-/postemergence
Type in all cases: in vivo
Set-up in all cases: key: 0 is no effect; 10 is complete control
[1] = test system: bedstraw (Galium aparine)
Outline: (§1)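 Response scores run from 0, meaning no effect, to 10, meaning complete control, assigned by eye relative to controls twelve to sixteen days after spraying. Treatment was both preemergence on planted seed and postemergence on plants at the 1- to 4-leaf stage.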

[2] = test system: broadleaf signalgrass (Brachiaria decumbens)
Outline: as §1

[3] = test system: giant foxtail (Setaria faberii)
Outline: as §1

[4] = test system: momingglory (Ipomoea hederacea)
Outline: as §1

wild oat (Avena fatua) = test system: wild oat (Avena fatua)
Outline: as §1

[5] = Rate 250 g/ha, Postemergence (so in the source)

Structure (SMILES) | Plant response rating, Bedstraw ([1]; Rate 62 g/ha, Postemergence) | Bedstraw plant response rating ([1]; Rate 62 g/ha, Preemergence) | Plant response rating, Bedstraw ([1]; Rate 125 g/ha, Postemergence) | Bedstraw plant response rating ([1]; Rate 125 g/ha, Preemergence) | Plant response rating, Bedstraw ([1]; Rate 250 g/ha, Postemergence) | Plant response rating, Bedstraw ([1]; Rate 250 g/ha, Preemergence) | Plant response rating, B. signalgrass ([2]; Rate 62 g/ha, Postemergence) | B. signalgrass plant response rating ([2]; Rate 62 g/ha, Preemergence) | Plant response rating, B. signalgrass ([2]; Rate 125 g/ha, Postemergence) | B. signalgrass plant response rating ([2]; Rate 125 g/ha, Preemergence) | Plant response rating, B. signalgrass ([2]; Rate 250 g/ha, Postemergence) | Plant response rating, B. signalgrass ([2]; Rate 250 g/ha, Preemergence) | Plant response rating, Giant foxtail ([3]; Rate 62 g/ha, Postemergence) | Giant foxtail plant response rating ([3]; Rate 62 g/ha, Preemergence) | Giant foxtail plant response rating ([3]; Rate 125 g/ha, Preemergence) | Plant response rating, Giant foxtail ([3]; Rate 250 g/ha, Postemergence) | Morningglory plant response rating ([4]; Rate 62 g/ha, Preemergence) | Plant response rating, Morningglory ([4]; Rate 250 g/ha, Postemergence) | Wild oats plant response rating (wild oat (Avena fatua); Rate 62 g/ha, Preemergence) | Plant response rating, Wild oats (wild oat (Avena fatua); Rate 250 g/ha, Postemergence) | other results
Cc1cnc(-c2ccc(C(F)(F)F)cc2)nc1Cn1cnc(C(F)(F)F)c1 [Compound 10] | 8 | 3 | 9 | 7 | 10 | 7 | 2 | 1 | 3 | 1 | 3 | 2 | 2 | 3 | 7 | 4 | 2 | 7 | 0 | 2 | Plant response rating, Bedstraw ([1]; Rate 500 g/ha, Postemergence): 10; Plant response rating, Bedstraw ([1]; Rate 500 g/ha, Preemergence): 10; Plant response rating, B. signalgrass ([2]; Rate 500 g/ha, Postemergence): 3; Plant response rating, B. signalgrass ([2]; Rate 500 g/ha, Preemergence): 4; Plant response rating, Giant foxtail ([3]; Rate 125 g/ha, Postemergence): 2; Plant response rating, Giant foxtail ([3]; Rate 250 g/ha, Preemergence): 8; Plant response rating, Giant foxtail ([3]; Rate 500 g/ha, Postemergence): 5; Plant response rating, Giant foxtail ([3]; Rate 500 g/ha, Preemergence): 9; Plant response rating, Morningglory ([4]; Rate 62 g/ha, Postemergence): 5; Plant response rating, Morningglory ([4]; Rate 125 g/ha, Postemergence): 7; Morningglory plant response rating ([4]; Rate 125 g/ha, Preemergence): 3; Plant response rating, Morningglory ([4]; Rate 250 g/ha, Preemergence): 9; Plant response rating, Morningglory ([4]; Rate 500 g/ha, Postemergence): 9; Plant response rating, Morningglory ([4]; Rate 500 g/ha, Preemergence): 10; Plant response rating, Wild oats (wild oat (Avena fatua); Rate 62 g/ha, Postemergence): 2; Plant response rating, Wild oats (wild oat (Avena fatua); Rate 125 g/ha, Postemergence): 2; Wild oats plant response rating (wild oat (Avena fatua); Rate 125 g/ha, Preemergence): 1; Plant response rating, Wild oats (wild oat (Avena fatua); Rate 250 g/ha, Preemergence): 2; Plant response rating, Wild oats (wild oat (Avena fatua); Rate 500 g/ha, Postemergence): 3; Plant response rating, Wild oats (wild oat (Avena fatua); Rate 500 g/ha, Preemergence): 4
Cc1cnc(-c2ccc(C(F)(F)F)cc2)nc1Cn1ccc(C(F)(F)C(F)(F)F)n1 [Compound 14] | 4 | 0 | 4 | 0 | 8 | 0 | 2 | 0 | 2 | 0 | 3 | 0 | 1 | 0 | 4 | 1 | 0 | 6 | 0 | 3 | Plant response rating, Bedstraw ([1]; Rate 500 g/ha, Postemergence): 10; Plant response rating, Bedstraw ([1]; Rate 500 g/ha, Preemergence): 2; Plant response rating, B. signalgrass ([2]; Rate 500 g/ha, Postemergence): 4; Plant response rating, B. signalgrass ([2]; Rate 500 g/ha, Preemergence): 5; Plant response rating, Giant foxtail ([3]; Rate 125 g/ha, Postemergence): 1; Plant response rating, Giant foxtail ([3]; Rate 250 g/ha, Preemergence): 7; Plant response rating, Giant foxtail ([3]; Rate 500 g/ha, Postemergence): 3; Plant response rating, Giant foxtail ([3]; Rate 500 g/ha, Preemergence): 9; Plant response rating, Morningglory ([4]; Rate 62 g/ha, Postemergence): 2; Plant response rating, Morningglory ([4]; Rate 125 g/ha, Postemergence): 6; Morningglory plant response rating ([4]; Rate 125 g/ha, Preemergence): 0; Plant response rating, Morningglory ([4]; Rate 250 g/ha, Preemergence): 2; Plant response rating, Morningglory ([4]; Rate 500 g/ha, Postemergence): 8; Plant response rating, Morningglory ([4]; Rate 500 g/ha, Preemergence): 8; Plant response rating, Wild oats (wild oat (Avena fatua); Rate 62 g/ha, Postemergence): 0; Plant response rating, Wild oats (wild oat (Avena fatua); Rate 125 g/ha, Postemergence): 1; Wild oats plant response rating (wild oat (Avena fatua); Rate 125 g/ha, Preemergence): 0; Plant response rating, Wild oats (wild oat (Avena fatua); Rate 250 g/ha, Preemergence): 0; Plant response rating, Wild oats (wild oat (Avena fatua); Rate 500 g/ha, Postemergence): 3; Plant response rating, Wild oats (wild oat (Avena fatua); Rate 500 g/ha, Preemergence): 2
Cc1cnc(-c2ccc(OC(F)(F)F)cc2)nc1Cc1cccc(C(F)(F)F)c1 [Compound 16] | 3 | 0 | 4 | 0 | 4 | 0 | 1 | 0 | 1 | 2 | 1 | 3 | 1 | 0 | 3 | 1 | 0 | 1 | 0 | 1 | Plant response rating, Bedstraw ([1]; Rate 500 g/ha, Postemergence): 5; Plant response rating, Bedstraw ([1]; Rate 500 g/ha, Preemergence): 1; Plant response rating, B. signalgrass ([2]; Rate 500 g/ha, Postemergence): 1; Plant response rating, B. signalgrass ([2]; Rate 500 g/ha, Preemergence): 7; Plant response rating, Giant foxtail ([3]; Rate 125 g/ha, Postemergence): 1; Plant response rating, Giant foxtail ([3]; Rate 250 g/ha, Preemergence): 7; Plant response rating, Giant foxtail ([3]; Rate 500 g/ha, Postemergence): 3; Plant response rating, Giant foxtail ([3]; Rate 500 g/ha, Preemergence): 8; Plant response rating, Morningglory ([4]; Rate 125 g/ha, Postemergence): 1; Morningglory plant response rating ([4]; Rate 125 g/ha, Preemergence): 0; Plant response rating, Morningglory ([4]; Rate 250 g/ha, Preemergence): 0; Plant response rating, Morningglory ([4]; Rate 500 g/ha, Postemergence): 1; Plant response rating, Morningglory ([4]; Rate 500 g/ha, Preemergence): 1; Plant response rating, Wild oats (wild oat (Avena fatua); Rate 62 g/ha, Postemergence): 0; Plant response rating, Wild oats (wild oat (Avena fatua); Rate 125 g/ha, Postemergence): 0; Wild oats plant response rating (wild oat (Avena fatua); Rate 125 g/ha, Preemergence): 1; Plant response rating, Wild oats (wild oat (Avena fatua); Rate 250 g/ha, Preemergence): 2; Plant response rating, Wild oats (wild oat (Avena fatua); Rate 500 g/ha, Postemergence): 1; Plant response rating, Wild oats (wild oat (Avena fatua); Rate 500 g/ha, Preemergence): 3
CCc1cnc(-c2ccc(C(F)(F)F)cc2)nc1Cc1cccc(C(F)(F)F)c1 [Compound 22] |  | 6 | 8 | 7 | 8 | 7 | 5 | 5 | 7 | 9 | 7 | 9 | 6 | 9 | 10 | 8 | 3 | 10 | 7 | 8 | Plant response rating, Giant foxtail ([3]; Rate 125 g/ha, Postemergence): 6; Plant response rating, Giant foxtail ([3]; Rate 250 g/ha, Preemergence): 10; Plant response rating, Morningglory ([4]; Rate 62 g/ha, Postemergence): 10; Plant response rating, Morningglory ([4]; Rate 125 g/ha, Postemergence): 10; Morningglory plant response rating ([4]; Rate 125 g/ha, Preemergence): 10; Plant response rating, Morningglory ([4]; Rate 250 g/ha, Preemergence): 10; Plant response rating, Wild oats (wild oat (Avena fatua); Rate 62 g/ha, Postemergence): 5; Plant response rating, Wild oats (wild oat (Avena fatua); Rate 125 g/ha, Postemergence): 6; Wild oats plant response rating (wild oat (Avena fatua); Rate 125 g/ha, Preemergence): 8; Plant response rating, Wild oats (wild oat (Avena fatua); Rate 250 g/ha, Preemergence): 9
Cc1cnc(-n2cnc(C(F)(F)F)c2)nc1Cc1cccc(C(F)(F)F)c1 [Compound 44] | 8 | 4 | 9 | 5 | 9 |  | 3 | 6 | 4 | 8 | 5 |  | 2 | 4 | 5 | 9 | 8 | 10 | 6 | 5 | Plant response rating, Bedstraw [1, 5]: 10; Plant response rating, B. signalgrass ([2]; Rate 250 g/ha, Postemergence as printed in head r139 (second section for compounds 26-50)): 8; Giant foxtail plant response rating ([3]; Rate 125 g/ha, Postemergence): 7; Plant response rating, Giant foxtail [3, 5]: 9; Plant response rating, Morningglory ([4]; Rate 62 g/ha, Postemergence): 10; Morningglory plant response rating ([4]; Rate 125 g/ha, Preemergence): 9; Plant response rating, Morningglory [4, 5]: 10; Wild oats plant response rating (wild oat (Avena fatua); Rate 62 g/ha, Postemergence): 4; Wild oats plant response rating (wild oat (Avena fatua); Rate 125 g/ha, Postemergence): 4; Plant response rating, Wild oats (wild oat (Avena fatua); Rate 125 g/ha, Preemergence): 7; Plant response rating, Wild oats (wild oat (Avena fatua); [5]): 9
Cc1cnc(-n2cnc(C(F)(F)F)n2)nc1Cn1ccc(C(F)(F)F)n1 [Compound 51] | 9 | 8 |  |  | 10 | 9 | 2 | 4 |  |  | 9 | 9 | 8 | 8 |  | 10 | 10 | 10 | 4 | 9 | Bedstraw plant response rating ([1]; Rate 125 g/ha, Postemergence): 10; Plant response rating, Bedstraw ([1]; Rate 125 g/ha, Preemergence): 10; B. signalgrass plant response rating ([2]; Rate 125 g/ha, Postemergence): 8; Plant response rating, B. signalgrass ([2]; Rate 125 g/ha, Preemergence): 9; Giant foxtail plant response rating ([3]; Rate 125 g/ha, Postemergence): 10; Plant response rating, Giant foxtail ([3]; Rate 125 g/ha, Preemergence): 10; Plant response rating, Giant foxtail ([3]; Rate 250 g/ha, Preemergence): 10; Plant response rating, Morningglory ([4]; Rate 62 g/ha, Postemergence): 10; Morningglory plant response rating ([4]; Rate 125 g/ha, Postemergence): 10; Plant response rating, Morningglory ([4]; Rate 125 g/ha, Preemergence): 10; Plant response rating, Morningglory ([4]; Rate 250 g/ha, Preemergence): 10; Wild oats plant response rating (wild oat (Avena fatua); Rate 62 g/ha, Postemergence): 8; Wild oats plant response rating (wild oat (Avena fatua); Rate 125 g/ha, Postemergence): 9; Plant response rating, Wild oats (wild oat (Avena fatua); Rate 125 g/ha, Preemergence): 7; Plant response rating, Wild oats (wild oat (Avena fatua); Rate 250 g/ha, Preemergence): 8
